How the values were obtained:
[1] = target: BCL2 WT (Homo sapiens (Human), UniProt P10415); assay: TR-FRET competitive binding assay, BCL2 WT; conditions: Ki determined from IC50, read-out: TR_FRET EKI_Bcl2 WT
Summary of the method: (§1)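 Ki derived from IC50 (11-point dilution, 520/495 nm emission ratio) for displacing a fluorescein-labelled PUMA peptide (2 or 20 nM). Target was 0.5 nM E. coli-expressed Halo-tagged BCL2 (1-207) or BCLXL (2-196), terbium-labelled on Halo. Incubation 2 h at 23°C in pH 7.5 Hepes with 150 mM NaCl and 5% DMSO.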

[2] = target: BCL2 G101V (Homo sapiens, UniProt P10415, G101V); assay: TR-FRET competitive binding assay, BCL2 G101V; conditions: BCL2 G101V; Ki determined from IC50; read-out: TR_FRET EKI_Bcl2 G101V
Summary of the method: as §1

[3] = tested on: BCL2 G101V; assay: TR-FRET competitive binding assay, BCL2 G101V; set-up: species or system human; conditions: ratio Ki BCL2 G101V / Ki BCL2 WT
Summary of the method: as §1

[4] = target: BCL2 D103Y (Homo sapiens, UniProt P10415, D103Y); assay: TR-FRET competitive binding assay, BCL2 D103Y; conditions: Ki determined from IC50, read-out: TR_FRET EKI_Bcl2 D103Y
Summary of the method: as §1

[5] = target: BCL2 F104I (Homo sapiens, UniProt P10415, F104I); assay: TR-FRET competitive binding assay, BCL2 F104I; conditions: Ki determined from IC50, read-out: TR_FRET EKI_Bcl2 F104I
Summary of the method: as §1

[6] = target: BCL2 D111A (Homo sapiens, UniProt P10415, D111A); assay: TR-FRET competitive binding assay, BCL2 D111A; conditions: Ki determined from IC50, read-out: TR_FRET EKI_Bcl2 D111A
Summary of the method: as §1

[7] = target: BCLXL WT (Homo sapiens (Human), UniProt Q07817); assay: TR-FRET competitive binding assay, BCLXL WT; conditions: for Ki: BCLXL WT, Ki determined from IC50, read-out: TR_FRET EKI BclxL; for TR_FRET EKI BCLxL/WT selectivty ratio: ratio Ki BCLxL / Ki BCL2 WT
Sequence of BCLXL WT (Q07817 other isoform, or with tags, fused parts or gaps): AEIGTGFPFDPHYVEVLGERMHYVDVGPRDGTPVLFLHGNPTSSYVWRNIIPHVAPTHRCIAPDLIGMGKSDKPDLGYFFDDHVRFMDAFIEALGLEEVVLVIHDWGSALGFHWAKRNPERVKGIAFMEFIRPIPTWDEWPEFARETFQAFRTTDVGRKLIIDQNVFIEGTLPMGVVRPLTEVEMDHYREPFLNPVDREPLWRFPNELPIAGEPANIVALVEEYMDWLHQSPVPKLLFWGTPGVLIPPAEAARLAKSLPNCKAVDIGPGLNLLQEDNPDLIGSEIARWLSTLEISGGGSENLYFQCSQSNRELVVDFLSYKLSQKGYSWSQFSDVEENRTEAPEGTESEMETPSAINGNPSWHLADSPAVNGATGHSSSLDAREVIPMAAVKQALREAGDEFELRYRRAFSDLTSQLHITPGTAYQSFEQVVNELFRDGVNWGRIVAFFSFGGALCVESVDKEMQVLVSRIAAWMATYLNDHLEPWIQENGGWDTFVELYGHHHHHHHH
Summary of the method: as §1

[8] = tested on: KMS-12-PE Bcl-2 WT; assay: In vitro cytotoxicity CellTiter-Glo 48 h, KMS-12-PE Bcl-2 WT; assay type: cell-based; conditions: Homo sapiens, KMS-12-PE, C50 = concentration needed to reach 50% of the cellular viability
Summary of the method: (§2)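 Potency is expressed as C50, the compound concentration at which viability of engineered KMS-12-PE cells (Bcl-2 wild type or G101V) falls to 50%, determined from CellTiter-Glo luminescence after 48 h of treatment over 11 concentrations.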

[9] = tested on: KMS-12-PE Bcl-2 G101V; assay: In vitro cytotoxicity CellTiter-Glo 48 h, KMS-12-PE Bcl-2 G101V; assay type: cell-based; conditions: for Ratio (G101V/WT): C50 KMS-12-PE Bcl-2 G101V over C50 KMS-12-PE Bcl-2 WT; for IC50: Homo sapiens, KMS-12-PE, 48 h, CellTiter-Glo, C50 = concentration needed to reach 50% of the cellular viability
Summary of the method: as §2

| Ki [1] | Ki [2] | TR_FRET EKI G101V/WT selectivty ratio [3] | Ki [4] | Ki [5] | Ki [6] | Ki [7] | TR_FRET EKI BCLxL/WT selectivty ratio [7] | SMILES | IC50 [8] | Ratio (G101V/WT) [9] | IC50 [9] |
| --- | --- | --- | --- | --- | --- | --- | --- | --- | --- | --- | --- |
| 0.05 nM | 0.3 nM | 5.2 | 0.15 nM | 0.27 nM | 0.13 nM | 3.6 nM | 69.2 | Cc1cc(OCCN2CCOCC2)ccc1CC(=O)N1CCc2cc(-c3cc(C(=O)N(c4ccc(O)cc4)c4cc(C#N)n(C)c4C)c(C)n3C)c(C(=O)N3Cc4ccccc4C[C@H]3CN3CCCCC3)cc2C1 [Example 113, N-(5-cyano-1,2-dimethyl-1H-pyrrol-3-yl)-N-(4-hydroxyphenyl)-1,2-dimethyl-5-[2-(2-{2-methyl-4-[2-(morpholin-4-yl)ethoxy]phenyl}acetyl)-7-[(3S)-3-[(piperidin-1-yl)methyl]-1,2,3,4-tetrahydroisoquinoline-2-carbonyl]-1,2,3,4-tetrahydroisoquinolin-6-yl]-1H-pyrrole-3-carboxamide] | 0.0063 µM | 4.38 | 0.0278 µM |
| 0.03 nM | 0.2 nM | 5.6 | 0.08 nM | 0.3 nM | 0.17 nM | 2.8 nM | 100.0 | Cc1c(N(C(=O)c2cc(-c3cc4c(cc3C(=O)N3Cc5ccccc5C[C@H]3CN3CCCCC3)CN(C(=O)Cc3ccc(OCCN5CCC(F)CC5)cc3F)CC4)n(C)c2C)c2ccc(O)cc2)cc(C#N)n1C [Example 115, N-(5-cyano-1,2-dimethyl-1H-pyrrol-3-yl)-5-[2-(2-{2-fluoro-4-[2-(4-fluoropiperidin-1-yl)ethoxy]phenyl}acetyl)-7-[(3S)-3-[(piperidin-1-yl)methyl]-1,2,3,4-tetrahydroisoquinoline-2-carbonyl]-1,2,3,4-tetrahydroisoquinolin-6-yl]-N-(4-hydroxyphenyl)-1,2-dimethyl-1H-pyrrole-3-carboxamide] | 0.0072 µM | 6.05 | 0.0458 µM |
| 0.05 nM | 0.3 nM | 5.3 | 0.11 nM | 0.18 nM | 0.11 nM | 1.7 nM | 36.2 | Cc1c(N(C(=O)c2cc(-c3cc4c(cc3C(=O)N3Cc5ccccc5C[C@H]3CN3CCCCC3)CN(C(=O)Cc3ccc(OCCN5CCN(CCF)CC5)cc3F)CC4)n(C)c2C)c2ccc(O)cc2)cc(C#N)n1C [Example 117, N-(5-cyano-1,2-dimethyl-1H-pyrrol-3-yl)-5-{2-[2-(2-fluoro-4-{2-[4-(2-fluoroethyl)piperazin-1-yl]ethoxy}phenyl)acetyl]-7-[(3S)-3-[(piperidin-1-yl)methyl]-1,2,3,4-tetrahydroisoquinoline-2-carbonyl]-1,2,3,4-tetrahydroisoquinolin-6-yl}-N-(4-hydroxyphenyl)-1,2-dimethyl-1H-pyrrole-3-carboxamide] | 0.0081 µM | 4.09 | 0.033 µM |
| 0.1 nM | 0.5 nM | 5.2 | 0.21 nM | 0.37 nM | 0.3 nM | 5.3 nM | 53.0 | Cc1c(N(C(=O)c2cc(-c3cc4c(cc3C(=O)N3Cc5ccccc5C[C@H]3CN3C[C@H]5C[C@H]5C3)CN(C(=O)Cc3ccc(OCCN5CCOCC5)cc3F)CC4)n(C)c2C)c2ccc(O)cc2)cc(C#N)n1C [Example 120, 5-{7-[(3S)-3-{[cis-3-azabicyclo[3.1.0]hexan-3-yl]methyl}-1,2,3,4-tetrahydroisoquinoline-2-carbonyl]-2-(2-{2-fluoro-4-[2-(morpholin-4-yl)ethoxy]phenyl}acetyl)-1,2,3,4-tetrahydroisoquinolin-6-yl}-N-(5-cyano-1,2-dimethyl-1H-pyrrol-3-yl)-N-(4-hydroxyphenyl)-1,2-dimethyl-1H-pyrrole-3-carboxamide] | 0.0032 µM | 5.83 | 0.0186 µM |
| 0.16 nM | 0.5 nM | 3.2 | 0.34 nM | 0.56 nM | 0.23 nM | 6 nM | 38.5 | Cc1c(N(C(=O)c2cc(-c3cc4c(cc3C(=O)N3Cc5ccccc5C[C@H]3CN3CCCCC3)CN(C(=O)Cc3ccc(OCCN5CCOC(C)(C)C5)cc3)CC4)n(C)c2C)c2ccc(O)cc2)cc(C#N)n1C [Example 121, N-(5-cyano-1,2-dimethyl-1H-pyrrol-3-yl)-5-[2-(2-{4-[2-(2,2-dimethylmorpholin-4-yl)ethoxy]phenyl}acetyl)-7-[(3S)-3-[(piperidin-1-yl)methyl]-1,2,3,4-tetrahydroisoquinoline-2-carbonyl]-1,2,3,4-tetrahydroisoquinolin-6-yl]-N-(4-hydroxyphenyl)-1,2-dimethyl-1H-pyrrole-3-carboxamide] | 0.0076 µM | 5.25 | 0.0397 µM |
| 0.07 nM | 0.3 nM | 4.2 | 0.28 nM | 0.18 nM | 0.13 nM | 2.6 nM | 35.1 | Cc1c(N(C(=O)c2cc(-c3cc4c(cc3C(=O)N3Cc5ccccc5C[C@H]3CN3CCCC[C@H]3C)CN(C(=O)Cc3ccc(OCCN5CCOCC5)cc3F)CC4)n(C)c2C)c2ccc(O)cc2)cc(C#N)n1C [Example 123, N-(5-cyano-1,2-dimethyl-1H-pyrrol-3-yl)-5-[2-(2-{2-fluoro-4-[2-(morpholin-4-yl)ethoxy]phenyl}acetyl)-7-[(3S)-3-{[(2R)-2-methylpiperidin-1-yl]methyl}-1,2,3,4-tetrahydroisoquinoline-2-carbonyl]-1,2,3,4-tetrahydroisoquinolin-6-yl]-N-(4-hydroxyphenyl)-1,2-dimethyl-1H-pyrrole-3-carboxamide] | 0.0038 µM | 4.82 | 0.0185 µM |
| 0.12 nM | 0.7 nM | 5.8 | 0.58 nM | 0.34 nM | 0.28 nM | 5.8 nM | 48.3 | Cc1c(N(C(=O)c2cc(-c3cc4c(cc3C(=O)N3Cc5ccccc5C[C@H]3CN3CCC[C@@H](C)C3)CN(C(=O)Cc3ccc(OCCN5CCOCC5)cc3F)CC4)n(C)c2C)c2ccc(O)cc2)cc(C#N)n1C [Example 124, N-(5-cyano-1,2-dimethyl-1H-pyrrol-3-yl)-5-[2-(2-{2-fluoro-4-[2-(morpholin-4-yl)ethoxy]phenyl}acetyl)-7-[(3S)-3-{[(3R)-3-methylpiperidin-1-yl]methyl}-1,2,3,4-tetrahydroisoquinoline-2-carbonyl]-1,2,3,4-tetrahydroisoquinolin-6-yl]-N-(4-hydroxyphenyl)-1,2-dimethyl-1H-pyrrole-3-carboxamide] | 0.0041 µM | 5.62 | 0.0231 µM |
| 0.07 nM | 0.4 nM | 5.4 | 0.19 nM | 0.17 nM | 0.13 nM | 4.3 nM | 61.4 | Cc1c(N(C(=O)c2cc(-c3cc4c(cc3C(=O)N3Cc5ccccc5C[C@H]3CN3CCCC[C@@H]3C)CN(C(=O)Cc3ccc(OCCN5CCOCC5)cc3F)CC4)n(C)c2C)c2ccc(O)cc2)cc(C#N)n1C [Example 125, N-(5-cyano-1,2-dimethyl-1H-pyrrol-3-yl)-5-[2-(2-{2-fluoro-4-[2-(morpholin-4-yl)ethoxy]phenyl}acetyl)-7-[(3S)-3-{[(2S)-2-methylpiperidin-1-yl]methyl}-1,2,3,4-tetrahydroisoquinoline-2-carbonyl]-1,2,3,4-tetrahydroisoquinolin-6-yl]-N-(4-hydroxyphenyl)-1,2-dimethyl-1H-pyrrole-3-carboxamide] | 0.0036 µM | 4.94 | 0.0178 µM |
